Among the test systems are UACC-257 melanoma; SF-268 CNS; HCT-116 colon; SW-620 colon; NCI-H23 lung; OVCAR-3 ovarian; NCI-H460 lung; ACHN renal.
What all share (assay): NCI tumour cell line growth inhibition, 48 h

This passage reports GI50 and TGI results from PubChem BioAssay (NCI).

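Following 48 hours of exposure in 96-well plates, responses at five concentrations were used to interpolate endpoints linearly. At the GI50, growth is halved. At the TGI there is no net growth.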

With `N#CC1C=Cc2c(ccc3ccccc23)N1C(=O)c1ccccc1` (stereo unspecified), the GI50 is 14.7 µM in the experiment on UACC-257 melanoma; 1.05 µM in the experiment on SF-268 CNS; 0.0637 µM in the experiment with HCT-116 colon; 0.0657 µM in the experiment on SW-620 colon; 0.433 µM with NCI-H23 lung; 0.167 µM with OVCAR-3 ovarian. Further, the GI50 is 0.191 µM in the experiment with NCI-H460 lung and 0.352 µM in the experiment with ACHN renal. In addition, the TGI in the experiment with UACC-257 melanoma was > 100 µM; with SF-268 CNS, > 100 µM; with HCT-116 colon, > 100 µM; in the experiment with SW-620 colon, > 75.2 µM; in the experiment with NCI-H23 lung it was > 100 µM; with OVCAR-3 ovarian, 0.574 µM. Also, the TGI in the experiment on NCI-H460 lung was 7.56 µM; in the experiment with ACHN renal it was > 100 µM.
As to `COC(=O)C(C)NC(=O)c1ccccc1I(OS(=O)(=O)C(F)(F)F)c1ccccc1` (stereo unspecified), the GI50 in the experiment on UACC-257 melanoma is 42.6 µM; in the experiment with SF-268 CNS it was 17.6 µM; in the experiment with HCT-116 colon it was 30 µM; with SW-620 colon, 20.9 µM; in the experiment with NCI-H23 lung, 18.5 µM; in the experiment with OVCAR-3 ovarian, 19 µM. Further, the GI50 in the experiment on NCI-H460 lung was 20.4 µM; with ACHN renal, 19.2 µM. In addition, the TGI in the experiment with UACC-257 melanoma was > 100 µM; in the experiment with SF-268 CNS, 53.2 µM; in the experiment with HCT-116 colon, > 100 µM; with SW-620 colon, 44 µM; in the experiment with NCI-H23 lung it was > 53.3 µM; with OVCAR-3 ovarian it was 41.8 µM. In addition, the TGI was found to be 59.1 µM in the experiment with NCI-H460 lung and 36.4 µM in the experiment on ACHN renal.
Regarding `Cc1cc(Nc2cc(N)ncn2)c(=O)n2c1C(=O)NC21CCCCC1`, the GI50 is > 100 µM with UACC-257 melanoma; 76.9 µM in the experiment on SF-268 CNS; > 100 µM with HCT-116 colon; > 100 µM in the experiment on SW-620 colon; > 100 µM with NCI-H23 lung; > 100 µM in the experiment with OVCAR-3 ovarian. In addition, the GI50 was > 100 µM in the experiment on NCI-H460 lung and 25.3 µM in the experiment with ACHN renal. The TGI in the experiment on UACC-257 melanoma, in the experiment with SF-268 CNS, with HCT-116 colon, in the experiment on SW-620 colon, in the experiment on NCI-H23 lung and with OVCAR-3 ovarian was > 100 µM throughout. The TGI in the experiment with NCI-H460 lung and with ACHN renal was > 100 µM in each case.
With `CC#Cc1nc(Nc2cc(C)[nH]n2)c2ccccc2n1`, the GI50 is 5.52 µM in the experiment on UACC-257 melanoma; 4.66 µM in the experiment with SF-268 CNS; 3.66 µM in the experiment with HCT-116 colon; 4.54 µM with SW-620 colon; 5.27 µM with NCI-H23 lung; 3.38 µM in the experiment on OVCAR-3 ovarian. The GI50 in the experiment on NCI-H460 lung is 4.53 µM; in the experiment with ACHN renal, 2.74 µM. In addition, the TGI was 20.9 µM in the experiment on UACC-257 melanoma; 20.5 µM with SF-268 CNS; 39.4 µM in the experiment on HCT-116 colon; 32.4 µM in the experiment on SW-620 colon; 41.6 µM in the experiment with NCI-H23 lung; 12.1 µM with OVCAR-3 ovarian. Further, the TGI was determined as 20.3 µM with NCI-H460 lung and 14.1 µM with ACHN renal.
Take `COc1ccc(Cn2cc3c(c2-c2cc(OC)c(OC)c(OC)c2)CCc2cnoc2-3)cc1`: the TGI in the experiment on UACC-257 melanoma is > 100 µM; in the experiment with SF-268 CNS, > 100 µM; in the experiment on HCT-116 colon, > 100 µM; with SW-620 colon, > 100 µM; with NCI-H23 lung it was > 100 µM; in the experiment with OVCAR-3 ovarian, 0.484 µM. The figures for the TGI in the experiment with NCI-H460 lung and in the experiment with ACHN renal were 1.88 µM and > 100 µM, respectively. Besides, the GI50 was 1.18 µM in the experiment with SF-268 CNS; 0.386 µM with HCT-116 colon; 0.314 µM in the experiment on SW-620 colon; 0.388 µM in the experiment with NCI-H23 lung; 0.189 µM with OVCAR-3 ovarian; 0.332 µM in the experiment on NCI-H460 lung. For the same compound, the GI50 in the experiment with ACHN renal is 0.849 µM.
In the case of `C=C1C(=O)O[C@H]2[C@H]1CC/C(COC(=O)NCc1ccc(Cn3c(=O)sn(-c4ccccc4)c3=O)cc1)=C\CC[C@@]1(C)O[C@@H]21`, the GI50 with UACC-257 melanoma is 1.86 µM; with SF-268 CNS, 2.21 µM; in the experiment with HCT-116 colon it was 1.52 µM; with SW-620 colon, 1.91 µM; with NCI-H23 lung, 3.55 µM; in the experiment with OVCAR-3 ovarian, 1.68 µM. Further, the GI50 in the experiment on NCI-H460 lung is 3.67 µM; with ACHN renal, 1.64 µM. Moreover, the TGI with UACC-257 melanoma amounted to 4.14 µM; in the experiment with SF-268 CNS it was 5 µM; in the experiment on HCT-116 colon, 2.95 µM; with SW-620 colon, 3.78 µM; in the experiment with NCI-H23 lung, 12.6 µM; with OVCAR-3 ovarian, 3.12 µM. Further, the TGI was determined as 12.4 µM in the experiment with NCI-H460 lung and 3.14 µM with ACHN renal.
Regarding `C=CC1=C(C)C2=NC1=CC1=NC(=C(CC)/C1=C\O)C=C1N=C3C(=C1C)C(=O)[C@H](C(=O)OC)C3=C1NC(=C2)[C@@H](C)[C@@H]1CCC(=O)O`, the TGI in the experiment on UACC-257 melanoma, with SF-268 CNS, with HCT-116 colon, in the experiment on SW-620 colon, with NCI-H23 lung and with NCI-H460 lung was > 100 µM in each case. For the same compound, the TGI with ACHN renal was > 100 µM.
Take `O=[N+]([O-])c1cccc2nccc(NCCCO)c12`: the TGI is 23.6 µM in the experiment on UACC-257 melanoma; 28.6 µM in the experiment on SF-268 CNS; > 100 µM in the experiment with HCT-116 colon; 27.6 µM with SW-620 colon; 27.1 µM in the experiment with NCI-H23 lung; 35.3 µM in the experiment with OVCAR-3 ovarian. In addition, the TGI in the experiment on NCI-H460 lung worked out at 24.4 µM; in the experiment on ACHN renal it was 53.5 µM.
Regarding `COc1cc(NC(=O)C2=C(N3CCOCC3)/C(=C/c3ccc(Cl)cc3)CC2)cc(OC)c1OC`, the GI50 in the experiment with UACC-257 melanoma was > 100 µM; in the experiment on SF-268 CNS, 20 µM; in the experiment on HCT-116 colon, 28.5 µM; in the experiment on SW-620 colon, > 100 µM; with NCI-H23 lung, 48.8 µM; with OVCAR-3 ovarian it was 24.9 µM. Also, the figures for the GI50 in the experiment with NCI-H460 lung and in the experiment on ACHN renal were > 100 µM and 16.9 µM, respectively. The TGI in the experiment with UACC-257 melanoma, in the experiment with SF-268 CNS, in the experiment with HCT-116 colon, in the experiment on SW-620 colon, with NCI-H23 lung and in the experiment on OVCAR-3 ovarian was > 100 µM each time. Besides, the TGI with NCI-H460 lung was > 100 µM; with ACHN renal, 61.8 µM.
